Columns and labels:
mGluR5 [1] = molecular target: mGluR5 (Homo sapiens, UniProt P41594); settings: cited from earlier work
[2] = molecular target: orthosteric glutamate site of mGluR5 (Homo sapiens, UniProt P41594); settings: cited from earlier work
mGluR5 [3] = molecular target: T1, mGluR5 (Rattus norvegicus, UniProt P31424); experiment: mGluR5 assay on rat cultured cortical astrocytes (Ca2+ mobilization, FLIPR); assay type: cell-based; settings: for increase of 1 μM glutamate-induced Ca2+ mobilization: 3 μM compound, 1 μM glutamate (EC20), rat cultured astrocytes, FIG. 1; for agonistic activity in the absence of glutamate: no glutamate, compared to buffer value
T1 construct: a functional expression of mGluR5 receptors; endogenous in cells; host or cells: primary cortical astrocytes from Sprague-Dawley rat embryos (15 days), treated with bFGF and EGF
T1 sequence (P31424 21-1203): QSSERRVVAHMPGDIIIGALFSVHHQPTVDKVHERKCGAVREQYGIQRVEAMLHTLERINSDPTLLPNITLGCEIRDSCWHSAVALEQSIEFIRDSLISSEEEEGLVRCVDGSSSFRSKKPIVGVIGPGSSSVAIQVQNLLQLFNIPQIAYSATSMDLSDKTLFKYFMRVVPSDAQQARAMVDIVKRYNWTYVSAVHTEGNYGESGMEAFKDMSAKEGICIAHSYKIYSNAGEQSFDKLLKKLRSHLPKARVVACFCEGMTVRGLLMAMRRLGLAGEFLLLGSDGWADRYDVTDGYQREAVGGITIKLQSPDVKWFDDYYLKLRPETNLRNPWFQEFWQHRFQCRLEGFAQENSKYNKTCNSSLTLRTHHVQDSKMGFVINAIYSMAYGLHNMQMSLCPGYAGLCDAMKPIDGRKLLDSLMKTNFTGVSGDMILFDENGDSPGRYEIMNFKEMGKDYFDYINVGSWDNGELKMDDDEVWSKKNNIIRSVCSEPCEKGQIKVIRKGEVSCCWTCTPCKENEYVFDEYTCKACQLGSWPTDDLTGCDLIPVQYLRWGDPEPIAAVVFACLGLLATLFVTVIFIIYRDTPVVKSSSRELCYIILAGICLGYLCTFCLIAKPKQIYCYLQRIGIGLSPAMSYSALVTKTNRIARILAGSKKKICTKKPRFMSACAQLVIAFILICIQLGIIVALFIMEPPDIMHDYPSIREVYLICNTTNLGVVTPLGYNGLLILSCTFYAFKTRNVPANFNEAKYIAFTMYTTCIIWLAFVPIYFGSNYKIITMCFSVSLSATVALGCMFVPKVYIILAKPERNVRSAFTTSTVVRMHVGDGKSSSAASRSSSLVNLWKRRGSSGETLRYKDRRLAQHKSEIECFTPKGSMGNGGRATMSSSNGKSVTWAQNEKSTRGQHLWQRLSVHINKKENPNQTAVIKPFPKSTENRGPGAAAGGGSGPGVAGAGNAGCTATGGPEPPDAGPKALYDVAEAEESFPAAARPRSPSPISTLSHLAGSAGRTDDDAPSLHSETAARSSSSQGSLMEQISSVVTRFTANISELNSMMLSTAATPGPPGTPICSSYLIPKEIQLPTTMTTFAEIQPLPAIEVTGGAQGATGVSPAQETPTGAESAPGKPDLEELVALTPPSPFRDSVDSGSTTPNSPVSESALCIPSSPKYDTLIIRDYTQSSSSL
Method: For subsequent seeding, the FCS supplementation was reduced to 10%. After 12 days, cells were subplated by trypsinisation onto poly-D-lysine precoated 384-well plates at a density of 20.000 cells per well in culture buffer supplemented with […] βFGF (basic fibroblast growth factor) (Invitrogen, Basel, Switzerland) and 10 ng/ml EGF (epidermal growth factor) (Invitrogen, Basel, Switzerland).
After 60 min of loading with 4 uM Fluo-4 (TefLabs, Austin, Tex.), the cells were washed three times with 50 μl of PBS Buffer and resuspended in 45 μl of Assay Buffer. The plates were then transferred to a Fluorometric Imaging Plate Reader (FLIPR, Molecular Devices, Sunnyvale, Calif.) for the assessment of intracellular calcium flux. […] The final DMSO concentration in the assay was 0.3%. In each experiment, fluorescence was then monitored as a function of time for 3 minutes and the data analyzed using Microsoft Excel and GraphPad Prism. Each data point was also measured two times.
The concentration-response curves of representative compounds of the present invention in the presence of EC20 of glutamate were generated using the Prism GraphPad program (Graph Pad Software Inc, San Diego, USA).

Chain of orthosteric glutamate site of mGluR5 (P41594 21-1212): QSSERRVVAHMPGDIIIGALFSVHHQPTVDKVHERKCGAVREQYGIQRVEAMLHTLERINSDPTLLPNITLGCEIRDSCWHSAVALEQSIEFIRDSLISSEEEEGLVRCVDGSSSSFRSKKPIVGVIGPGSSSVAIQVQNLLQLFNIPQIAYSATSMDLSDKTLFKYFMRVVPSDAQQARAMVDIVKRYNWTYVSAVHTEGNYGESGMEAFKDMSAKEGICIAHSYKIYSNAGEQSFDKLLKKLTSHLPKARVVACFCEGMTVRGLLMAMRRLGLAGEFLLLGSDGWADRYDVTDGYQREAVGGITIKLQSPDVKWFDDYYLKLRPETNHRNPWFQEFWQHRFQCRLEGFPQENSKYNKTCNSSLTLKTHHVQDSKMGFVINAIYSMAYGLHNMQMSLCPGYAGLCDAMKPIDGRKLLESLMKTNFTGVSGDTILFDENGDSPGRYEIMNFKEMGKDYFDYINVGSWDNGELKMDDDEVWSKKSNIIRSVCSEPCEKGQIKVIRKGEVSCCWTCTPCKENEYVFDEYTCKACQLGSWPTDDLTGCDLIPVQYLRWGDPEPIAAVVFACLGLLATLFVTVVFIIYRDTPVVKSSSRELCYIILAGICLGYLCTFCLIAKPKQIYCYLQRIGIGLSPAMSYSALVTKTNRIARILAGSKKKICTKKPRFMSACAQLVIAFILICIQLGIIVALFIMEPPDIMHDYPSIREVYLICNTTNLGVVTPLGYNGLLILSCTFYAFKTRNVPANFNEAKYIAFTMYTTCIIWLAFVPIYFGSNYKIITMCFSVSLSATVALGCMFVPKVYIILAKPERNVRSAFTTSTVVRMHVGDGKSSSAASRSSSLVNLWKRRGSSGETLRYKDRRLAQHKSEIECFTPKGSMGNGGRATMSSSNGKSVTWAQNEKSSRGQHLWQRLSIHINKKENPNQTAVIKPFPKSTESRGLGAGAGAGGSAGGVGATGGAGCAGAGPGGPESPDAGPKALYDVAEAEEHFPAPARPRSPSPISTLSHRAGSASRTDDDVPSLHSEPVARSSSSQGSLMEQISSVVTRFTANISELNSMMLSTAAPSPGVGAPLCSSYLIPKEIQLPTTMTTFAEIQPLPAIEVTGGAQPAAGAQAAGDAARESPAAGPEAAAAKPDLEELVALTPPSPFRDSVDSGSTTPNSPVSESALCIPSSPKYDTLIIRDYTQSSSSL
Chain of mGluR5 (Homo sapiens, UniProt P41594) (P41594 21-1212): as above

SMILES | melting point [°C] | other results
Fc1cccc(C=NN=Cc2cccc(F)c2)c1 [DFB, 3,3′-Difluorobenzaldazine] | – | in vitro potency as mGluR5 positive allosteric modulator (mGluR5 [1]): low in vitro potency; inhibition of the binding of [3H]-quisqualate to the orthosteric glutamate site [2]: not able to inhibit
O=C(CCc1ccc(F)cc1)N1CCC[C@H](c2nc(-c3ccc(F)cc3)no2)C1 [Example 42, 3-(4-Fluoro-phenyl)-1-{(S)-3-[3-(4-fluoro-phenyl)-1,2,4-oxadiazol-5-yl]-piperidin-1-yl}-propan-1-one] | 83 to 84 | –
O=C(c1ccc2[nH]cnc2c1)N1CCC[C@H](c2nc(-c3ccc(F)cc3)no2)C1 [Example 45, {(S)-3-[3-(4-Fluoro-phenyl)-1,2,4-oxadiazol-5-yl]-piperidin-1-yl}-benzoimidazol-6-yl-methanone] | 110 to 115 | –
O=C(c1ccc(F)cc1)N1CCC[C@H](c2nc(-c3ccncc3)no2)C1 [Example 48, (4-Fluoro-phenyl)-[(S)-3-(3-pyridin-4-yl-[1,2,4]oxadiazol-5-yl)-piperidin-1-yl]-methanone] | 113 to 115 | –
O=C(c1ccc(F)cc1)N1CCC[C@H](c2nc(-c3ccc4ccccc4c3)no2)C1 [Example 53, (4-Fluoro-phenyl)-[(S)-3-(3-naphthalen-2-yl-[1,2,4]oxadiazol-5-yl)-piperidin-1-yl]-methanone] | 142 to 143 | –
O=C(c1ccc(F)cc1)N1CCC[C@H](c2nc(-c3ccccc3F)no2)C1 [Example 55, (4-Fluoro-phenyl)-{(S)-3-[3-(2-fluoro-phenyl)-[1,2,4]oxadiazol-5-yl]-piperidin-1-yl}-methanone] | – | increase of 1 μM glutamate-induced Ca2+ mobilization (mGluR5 [3]): increase; agonistic activity in the absence of glutamate (mGluR5 [3]): no statistically significant agonistic activity
O=C(c1ccc(F)cc1)N1CCC[C@H](c2nc(-c3ccccn3)no2)C1 [Example 56, (4-Fluoro-phenyl)-[(S)-3-(3-pyridin-2-yl-[1,2,4]oxadiazol-5-yl)-piperidin-1-yl]-methanone] | – | increase of 1 μM glutamate-induced Ca2+ mobilization (mGluR5 [3]): increase; agonistic activity in the absence of glutamate (mGluR5 [3]): no statistically significant agonistic activity
O=C(c1ccc(F)c(F)c1)N1CCC[C@H](c2nc(-c3ccccc3F)no2)C1 [Example 59] | 115 to 119 | –
O=C(c1ccc(F)cc1)N1CCOC(c2nc(-c3ccc(F)cc3)no2)C1 (centres unmarked) [Example 60, (4-Fluoro-phenyl)-{2-[3-(4-fluoro-phenyl)-[1,2,4]oxadiazol-5-yl]-morpholin-4-yl}-methanone] | 116 to 117 | –
O=C(/C=C/c1ccc(F)cc1)N1CCC[C@H](c2nc(-c3ccc(F)cc3)no2)C1 [Example 64, (E)-3-(4-Fluoro-phenyl)-1-{(S)-3-[3-(4-fluoro-phenyl)-[1,2,4]oxadiazol-5-yl]-piperidin-1-yl}-propenone] | 137 to 139 | –
O=C(c1ccc(F)cc1)N1CCC[C@H](c2nc(-c3ccccc3)no2)C1 [Example 69, (4-Fluoro-phenyl)-[(S)-3-(3-phenyl-[1,2,4]oxadiazol-5-yl)-piperidin-1-yl]-methanone] | 116 to 118 | –
O=C(c1ccc(F)c(F)c1)N1CCC[C@H](c2nc(-c3ccccc3)no2)C1 [Example 70, (3,4-Difluoro-phenyl)-[(S)-3-(3-phenyl-[1,2,4]oxadiazol-5-yl)-piperidin-1-yl]-methanone] | 149 to 151 | –
O=C(c1ccc(F)cc1)N1CCC[C@H](c2nc(-c3ccc([N+](=O)[O-])cc3)no2)C1 [Example 71, (4-Fluoro-phenyl)-{(S)-3-[3-(4-nitro-phenyl)-[1,2,4]oxadiazol-5-yl]-piperidin-1-yl}-methanone] | 162 to 164 | –
O=C(c1ccc(F)c(F)c1)N1CCC[C@H](c2nc(-c3ccc([N+](=O)[O-])cc3)no2)C1 [Example 72, (3,4-Difluoro-phenyl)-{(S)-3-[3-(4-nitro-phenyl)-[1,2,4]oxadiazol-5-yl]-piperidin-1-yl}-methanone] | 138 to 140 | –
